What was measured:
[1] = tested on: GLXMAW (Soybean, Williams); test: Preemergence herbicidal evaluation; format: in vivo, Glycine max, (L.) Merr. cv Williams; conditions: 0.2500 kg/ha, rated 4-5 weeks after treatment
Excerpt: (§1) Results of herbicide evaluation are expressed on a rating scale (0-9). The scale is based upon a visual observation of plant stand, vigor, malformation, size, chlorosis and overall plant appearance as compared with a control.
(§2) The preemergence herbicidal activity of the test compounds of the present invention is exemplified by the following tests in which the seeds of a variety of monocotyledonous and dicotyledonous plants are separately mixed with potting soil and planted on top of approximately one inch of soil in separate pint cups. After planting, the cups are sprayed with the selected aqueous acetone solution containing test compound in sufficient quantity to provide the equivalent of about 0.0156 to 0.500 kg per hectare of test compound per cup. The treated cups are then placed on greenhouse benches, watered and cared for in accordance with conventional greenhouse procedures. From four to five weeks after treatment, the tests are terminated and each cup is examined and rated according to the rating system provided in Example 37.
(§3) The compounds evaluated are reported by compound number given in Example 37.

SETVI (Foxtail, Green) [2] = test: Preemergence herbicidal evaluation; format: in vivo, Setaria viridis; conditions: 0.2500 kg/ha, rated 4-5 weeks after treatment
Excerpt: as §1, §2, §3

CASOB (Sicklepod) [3] = test: Preemergence herbicidal evaluation; format: in vivo, Cassia obtusifolia; conditions: 0.2500 kg/ha, rated 4-5 weeks after treatment
Excerpt: as §1, §2, §3

ZEAMX (Corn, Field) [4] = test: Preemergence herbicidal evaluation; format: in vivo, Zea mays; conditions: 0.2500 kg/ha, rated 4-5 weeks after treatment
Excerpt: as §1, §2, §3

ZEAMX (Corn, Field) [5] = test: Postemergence herbicidal evaluation; format: in vivo, Zea mays; conditions: postemergence
Protocol: (§4) In the tests, seedling plants are grown in jiffy flats for about two weeks. The test compounds are dispersed in 50/50 acetone/water mixtures containing 0.5% TWEEN®20, a polyoxyethylene sorbitan monolaurate surfactant of Atlas Chemical Industries, in sufficient quantities to provide the equivalent of about 0.0156 kg to 0.500 kg per hectare of active compound when applied to the plants through a spray nozzle operating at 40 psi for a predetermined time. After spraying, the plants are placed on greenhouse benches and are cared for in accordance with conventional greenhouse procedures. From four to five weeks after treatment, the seedling plants are examined and rated according to the rating system set forth below. Where more than one test is involved for a given compound, the data are averaged.
(§5) Plant species employed in these evaluations are reported by header abbreviation, common name and scientific name.
as §1

[6] = tested on: CHEAL (Lambsquarters, Common); test: Postemergence herbicidal evaluation; format: in vivo, Chenopodium album; conditions: postemergence
Protocol: as §4, §5, §1

SETVI (Foxtail, Green) [7] = test: Postemergence herbicidal evaluation; format: in vivo, Setaria viridis; conditions: postemergence
Protocol: as §4, §5, §1

[8] = tested on: IPOHE (Morningglory, Ivyleaf); test: Postemergence herbicidal evaluation; format: in vivo, Ipomoea hederacea; conditions: postemergence
Protocol: as §4, §5, §1

ECHCG (Barnyardgrass) [9] = test: Postemergence herbicidal evaluation; format: in vivo, Echinochloa crus-galli; conditions: postemergence
Protocol: as §4, §5, §1

[10] = tested on: ECHORC (Watergrass (Calif.)); test: Preemergence weed control under flooded paddy conditions; format: in vivo, Echinochloa oryzoides; conditions: rated 3-4 weeks after treatment
Protocol: as §1
(§6) Preemergence herbicidal activity under flooded paddy conditions is determined as follows: plant seeds or propagating organs are planted in the top 0.5 cm of silt loam soil in 32 oz. plastic containers with a diameter of 10.5 cm and no drainage holes. Water is added to these containers and maintained at 1.5 to 3 cm above the soil surface for the duration of the experiment. The test compounds are applied as aqueous/acetone mixtures 50/50 v/v pipetted directly into the flood water to give the equivalent of about 0.0313 to 0.500 kg/ha of active ingredient. The treated containers are placed on greenhouse benches and cared for in accordance with conventional greenhouse procedures. Three to four weeks after treatment, the test is terminated and each container is examined and herbicidal effect rated according to the rating system provided in Example 37. The compounds evaluated are reported by compound number given in Example 37.
(§7) Plant species employed in this example are reported by header abbreviation, common name and scientific name.

CYPSE (Flatsedge) = test: as above; format: in vivo, Cyperus serotinus; conditions: rated 3-4 weeks after treatment
Protocol: as §1, §6, §7

ABUTH (Velvetleaf) [11] = test: Postemergence herbicidal evaluation; format: in vivo, Abutilon theophrasti; conditions: postemergence
Protocol: as §4, §5, §1

[12] = tested on: TRZAWR (Wheat, Winter, cv Riband); test: Postemergence herbicidal evaluation; format: in vivo, Triticum aestivum; conditions: postemergence
Protocol: as §4, §5, §1

CYPIR (Rice Flatsedge) = test: Preemergence weed control under flooded paddy conditions; format: in vivo, Cyperus iria; conditions: rated 3-4 weeks after treatment
Protocol: as §1, §6, §7

[13] = tested on: IPOHE (Morningglory, Ivyleaf); test: Preemergence herbicidal evaluation; format: in vivo, Ipomoea hederacea; conditions: 0.2500 kg/ha, rated 4-5 weeks after treatment
Excerpt: as §1, §2, §3

MOOVA (Monochoria) = test: Preemergence weed control under flooded paddy conditions; format: in vivo, Monochoria vaginalis; conditions: rated 3-4 weeks after treatment
Protocol: as §1, §6, §7

ORYSAT (Rice, Tebonnet) [14] = test: Preemergence herbicidal evaluation; format: in vivo, Oryza sativa, (L.) Tebonnet; conditions: 0.2500 kg/ha, rated 4-5 weeks after treatment
Excerpt: as §1, §2, §3

ORYSAT (Rice, Tebonnet) [15] = test: Postemergence herbicidal evaluation; format: in vivo, Oryza sativa, (L.) Tebonnet; conditions: postemergence
Protocol: as §4, §5, §1

AMBEL (Ragweed, Common) [16] = test: Preemergence herbicidal evaluation; format: in vivo, Ambrosia artemisifolia; conditions: 0.2500 kg/ha, rated 4-5 weeks after treatment
Excerpt: as §1, §2, §3

ECHCG (Barnyardgrass) [17] = test: Preemergence herbicidal evaluation; format: in vivo, Echinochloa crus-galli; conditions: 0.2500 kg/ha, rated 4-5 weeks after treatment
Excerpt: as §1, §2, §3

[18] = tested on: GLXMAW (Soybean, Williams); test: Postemergence herbicidal evaluation; format: in vivo, Glycine max, (L.) Merr. cv Williams; conditions: postemergence
Protocol: as §4, §5, §1

[19] = tested on: TRZAWR (Wheat, Winter, cv Riband); test: Preemergence herbicidal evaluation; format: in vivo, Triticum aestivum; conditions: 0.2500 kg/ha, rated 4-5 weeks after treatment
Excerpt: as §1, §2, §3

GALAP (Galium) [20] = test: Postemergence herbicidal evaluation; format: in vivo, Galium aparine; conditions: postemergence
Protocol: as §4, §5, §1

AMBEL (Ragweed, Common) [21] = test: Postemergence herbicidal evaluation; format: in vivo, Ambrosia artemisifolia; conditions: postemergence
Protocol: as §4, §5, §1

[22] = tested on: CHEAL (Lambsquarters, Common); test: Preemergence herbicidal evaluation; format: in vivo, Chenopodium album; conditions: 0.2500 kg/ha, rated 4-5 weeks after treatment
Excerpt: as §1, §2, §3

[23] = tested on: SAGPY (Arrowhead (Pygmaea)); test: Preemergence weed control under flooded paddy conditions; format: in vivo, Sagittaria pygmaea; conditions: rated 3-4 weeks after treatment
Protocol: as §1, §6, §7

GALAP (Galium) [24] = test: Preemergence herbicidal evaluation; format: in vivo, Galium aparine; conditions: 0.2500 kg/ha, rated 4-5 weeks after treatment
Excerpt: as §1, §2, §3

ABUTH (Velvetleaf) [25] = test: Preemergence herbicidal evaluation; format: in vivo, Abutilon theophrasti; conditions: 0.2500 kg/ha, rated 4-5 weeks after treatment
Excerpt: as §1, §2, §3

CASOB (Sicklepod) [26] = test: Postemergence herbicidal evaluation; format: in vivo, Cassia obtusifolia; conditions: postemergence
Protocol: as §4, §5, §1

SMILES: CCOC(=O)CN1C(=O)CSC1=Nc1cc(N2C(=O)CC(C(F)(F)F)CC2=O)c(F)cc1Cl [Compound 169, Ethyl 2-{{2-chloro-5-[2,6-dioxo-4-(trifluoromethyl)piperidino]-4-fluorophenyl}imino}-4-oxo-3-thiazolidineacetate]
- Preemergence herbicidal rating GLXMAW [1]: 3.0
- Preemergence herbicidal rating SETVI (SETVI (Foxtail, Green) [2]): 0.0
- Preemergence herbicidal rating CASOB (CASOB (Sicklepod) [3]): 0.0
- Preemergence herbicidal rating ZEAMX (ZEAMX (Corn, Field) [4]): 0.0
- herbicidal rating ZEAMX (ZEAMX (Corn, Field) [5]; rate 0.0156 kg/ha): 6.0
- herbicidal rating ZEAMX (ZEAMX (Corn, Field) [5]; rate 0.0313 kg/ha): 7.5
- herbicidal rating ZEAMX (ZEAMX (Corn, Field) [5]; rate 0.0625 kg/ha): 8.5
- herbicidal rating CHEAL ([6]; rate 0.0156 kg/ha): 0.0
- herbicidal rating CHEAL ([6]; rate 0.0313 kg/ha): 3.0
- herbicidal rating CHEAL ([6]; rate 0.0625 kg/ha): 4.0
- herbicidal rating SETVI (SETVI (Foxtail, Green) [7]; rate 0.0156 kg/ha): 0.0
- herbicidal rating SETVI (SETVI (Foxtail, Green) [7]; rate 0.0313 kg/ha): 5.0
- herbicidal rating SETVI (SETVI (Foxtail, Green) [7]; rate 0.0625 kg/ha): 9.0
- herbicidal rating IPOHE ([8]; rate 0.0156 kg/ha): 9.0
- herbicidal rating IPOHE ([8]; rate 0.0313 kg/ha): 9.0
- herbicidal rating IPOHE ([8]; rate 0.0625 kg/ha): 9.0
- herbicidal rating ECHCG (ECHCG (Barnyardgrass) [9]; rate 0.0156 kg/ha): 2.0
- herbicidal rating ECHCG (ECHCG (Barnyardgrass) [9]; rate 0.0313 kg/ha): 4.0
- herbicidal rating ECHCG (ECHCG (Barnyardgrass) [9]; rate 0.0625 kg/ha): 7.0
- herbicidal effect rating, ECHORC ([10]; 0.0313 kg/ha): 0.0
- herbicidal effect rating, ECHORC ([10]; 0.0625 kg/ha): 0.0
- herbicidal effect rating, ECHORC ([10]; 0.1250 kg/ha): 0.0
- herbicidal effect rating, ECHORC ([10]; 0.2500 kg/ha): 2.0
- herbicidal effect rating, CYPSE (CYPSE (Flatsedge); 0.0313 kg/ha): 0.0
- herbicidal effect rating, CYPSE (CYPSE (Flatsedge); 0.1250 kg/ha): 0.0
- herbicidal rating ABUTH (ABUTH (Velvetleaf) [11]; rate 0.0156 kg/ha): 9.0
- herbicidal rating ABUTH (ABUTH (Velvetleaf) [11]; rate 0.0313 kg/ha): 9.0
- herbicidal rating ABUTH (ABUTH (Velvetleaf) [11]; rate 0.0625 kg/ha): 9.0
- herbicidal rating TRZAWR ([12]; rate 0.0156 kg/ha): 4.5
- herbicidal rating TRZAWR ([12]; rate 0.0313 kg/ha): 6.0
- herbicidal rating TRZAWR ([12]; rate 0.0625 kg/ha): 7.0
- herbicidal effect rating, CYPIR (CYPIR (Rice Flatsedge); 0.0313 kg/ha): 0.0
- herbicidal effect rating, CYPIR (CYPIR (Rice Flatsedge); 0.0625 kg/ha): 0.0
- herbicidal effect rating, CYPIR (CYPIR (Rice Flatsedge); 0.1250 kg/ha): 0.0
- herbicidal effect rating, CYPIR (CYPIR (Rice Flatsedge); 0.2500 kg/ha): 2.0
- Preemergence herbicidal rating IPOHE [13]: 3.0
- herbicidal effect rating, MOOVA (MOOVA (Monochoria); 0.0313 kg/ha): 5.0
- herbicidal effect rating, MOOVA (MOOVA (Monochoria); 0.0625 kg/ha): 6.0
- herbicidal effect rating, MOOVA (MOOVA (Monochoria); 0.1250 kg/ha): 6.0
- herbicidal effect rating, MOOVA (MOOVA (Monochoria); 0.2500 kg/ha): 7.0
- Preemergence herbicidal rating ORYSAT (ORYSAT (Rice, Tebonnet) [14]): 0.0
- herbicidal rating ORYSAT (ORYSAT (Rice, Tebonnet) [15]; rate 0.0156 kg/ha): 0.5
- herbicidal rating ORYSAT (ORYSAT (Rice, Tebonnet) [15]; rate 0.0313 kg/ha): 1.0
- herbicidal rating ORYSAT (ORYSAT (Rice, Tebonnet) [15]; rate 0.0625 kg/ha): 2.0
- Preemergence herbicidal rating AMBEL (AMBEL (Ragweed, Common) [16]): 3.0
- Preemergence herbicidal rating ECHCG (ECHCG (Barnyardgrass) [17]): 0.0
- herbicidal rating GLXMAW ([18]; rate 0.0156 kg/ha): 5.0
- herbicidal rating GLXMAW ([18]; rate 0.0313 kg/ha): 6.5
- herbicidal rating GLXMAW ([18]; rate 0.0625 kg/ha): 7.5
- Preemergence herbicidal rating TRZAWR [19]: 0.0
- herbicidal rating GALAP (GALAP (Galium) [20]; rate 0.0156 kg/ha): 0.0
- herbicidal rating GALAP (GALAP (Galium) [20]; rate 0.0313 kg/ha): 0.0
- herbicidal rating GALAP (GALAP (Galium) [20]; rate 0.0625 kg/ha): 0.0
- herbicidal rating AMBEL (AMBEL (Ragweed, Common) [21]; rate 0.0156 kg/ha): 9.0
- herbicidal rating AMBEL (AMBEL (Ragweed, Common) [21]; rate 0.0313 kg/ha): 9.0
- herbicidal rating AMBEL (AMBEL (Ragweed, Common) [21]; rate 0.0625 kg/ha): 9.0
- Preemergence herbicidal rating CHEAL [22]: 4.0
- herbicidal effect rating, SAGPY ([23]; 0.0313 kg/ha): 0.0
- herbicidal effect rating, SAGPY ([23]; 0.0625 kg/ha): 0.0
- herbicidal effect rating, SAGPY ([23]; 0.1250 kg/ha): 0.0
- herbicidal effect rating, SAGPY ([23]; 0.2500 kg/ha): 3.0
- Preemergence herbicidal rating GALAP (GALAP (Galium) [24]): 0.0
- Preemergence herbicidal rating ABUTH (ABUTH (Velvetleaf) [25]): 5.0
- herbicidal rating CASOB (CASOB (Sicklepod) [26]; rate 0.0156 kg/ha): 0.0
- herbicidal rating CASOB (CASOB (Sicklepod) [26]; rate 0.0313 kg/ha): 1.0
- herbicidal rating CASOB (CASOB (Sicklepod) [26]; rate 0.0625 kg/ha): 3.0
